In the supplement of paper PMC11061612:

What was measured:
[1] = tested on: Becker (Low Grade Glioma); experiment: Bliss excess, mean over the matrix (fraction); higher = more synergy
Outline: (§1)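 Cell lines in DMEM/F12 or RPMI with 10% FBS were plated in 1536-well plates, held 24 hours at 37°C, 5% CO2, then given two-drug dose matrices for 72 hours (DMSO typically 0.2%). Viability was read by CellTiter-Glo 2.0 luminescence and scaled as inhibition from 0 (vehicle wells) to 1 (blank wells). Combination Emax is the second-highest inhibition in the matrix; Bliss excess is observed combination effect minus expected EA + EB − EA·EB, EA and EB being single-agent effects.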

ES-2 (Ovarian Carcinoma) [2] = experiment: as above
Outline: as §1

[3] = tested on: AN3-CA (Endometrial Carcinoma); experiment: combination Emax (second highest fraction inhibited in the dose matrix, 72 h); higher = more inhibition; extreme values may be limits of the assay
Outline: as §1

[4] = tested on: AsPC-1 (Pancreatic Carcinoma); experiment: as above
Outline: as §1

CHL-1 (Melanoma) = experiment: as above
Outline: as §1

[5] = tested on: EB-3 (Burkitt's Lymphoma); experiment: as above
Outline: as §1

ES-2 (Ovarian Carcinoma) [6] = experiment: as above
Outline: as §1

[7] = tested on: HSC-3 (Oral Cavity Carcinoma); experiment: as above
Outline: as §1

[8] = tested on: JHH-1 (Hepatocellular Carcinoma); experiment: as above
Outline: as §1

[9] = tested on: LOUCY (T-Lymphoblastic Leukemia); experiment: as above
Outline: as §1

[10] = tested on: NCI-H1755 (Lung Adenocarcinoma); experiment: as above
Outline: as §1

[11] = tested on: NCI-H196 (Small Cell Lung Carcinoma); experiment: as above
Outline: as §1

[12] = tested on: OCI-AML5 (Acute Myeloid Leukemia); experiment: as above
Outline: as §1

[13] = tested on: OV-90 (Ovarian Carcinoma); experiment: as above
Outline: as §1

[14] = tested on: OVTOKO (Ovarian Carcinoma); experiment: as above
Outline: as §1

[15] = tested on: PC-14 (Lung Adenocarcinoma); experiment: as above
Outline: as §1

[16] = tested on: RMG-I (Ovarian Carcinoma); experiment: as above
Outline: as §1

[17] = tested on: RPMI-8866 (Chronic Myelogenous Leukemia); experiment: as above
Outline: as §1

[18] = tested on: SK-MM-2 (Plasma Cell Myeloma); experiment: as above
Outline: as §1

[19] = tested on: SW684 (Other Solid Carcinomas); experiment: as above
Outline: as §1
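Wherever Bliss excess, mean over the matrix is given: after 72 h of two-drug dosing.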

SMILES	Bliss excess [1]	Bliss excess (ES-2 (Ovarian Carcinoma) [2])	combination Emax [3]	combination Emax [4]	combination Emax (CHL-1 (Melanoma))	combination Emax [5]	combination Emax (ES-2 (Ovarian Carcinoma) [6])	combination Emax [7]	combination Emax [8]	combination Emax [9]	combination Emax [10]	combination Emax [11]	combination Emax [12]	combination Emax [13]	combination Emax [14]	combination Emax [15]	combination Emax [16]	combination Emax [17]	combination Emax [18]	combination Emax [19]
Cc1cc2ncnn2cc1Nc1ncc2c(n1)n(C1CCOCC1)c(=O)n2C [AZD7648] + C=CCn1c(=O)c2cnc(Nc3ccc(N4CCN(C)CC4)cc3)nc2n1-c1cccc(C(C)(C)O)n1 [AZD1775] (first compound max 10 µM, partner max 1 µM)	-0.0269	0.0248	0.465	0.314	0.704	0.667	0.661	0.311	0.433	1	0.77	0.479	0.947	0.409	0.561	0.86	0.471	0.971	0.573	0.32
COc1cccc2c1C(=O)c1c(O)c3c(c(O)c1C2=O)C[C@@](O)(C(=O)CO)C[C@@H]3O[C@H]1C[C@H](N)[C@H](O)[C@H](C)O1 [Doxorubicin] + Cc1cc2ncnn2cc1Nc1ncc2c(n1)n(C1CCOCC1)c(=O)n2C [AZD7648] (first compound max 1 µM, 7x7, partner max 10 µM)	0.0406	0.076	0.501	0.267	0.767	0.919	0.76	0.702	0.353	0.943	0.776	0.145	0.988	0.569	0.216	0.748	0.599	0.996	0.371	0.556
CC1(C)CCC(CN2CCN(c3ccc(C(=O)NS(=O)(=O)c4ccc(NCC5CCOCC5)c([N+](=O)[O-])c4)c(Oc4cnc5[nH]ccc5c4)c3)CC2)=C(c2ccc(Cl)cc2)C1 [Venetoclax] + C[C@@H](Nc1cc(F)cc(F)c1)c1cc(C(=O)N(C)C)cc2c(=O)cc(N3CCOCC3)oc12 [AZD8186] (first compound max 1 µM, 7x7, partner max 3 µM)	0.0404	-0.0199	0.457	0.104	0.147	0.198	0.159	0.0933	0.172	1	0.588	0.218	1	0.164	0.521	0.175	0.277	0.594	1	0.315
COc1nnc2ccc(N3CCC(c4ccc(OCCN5CCN(C)C(=O)[C@H]5C)cc4)CC3)nn12 [AZD5153] + CCN(CCO)CCCOc1ccc2c(Nc3cc(CC(=O)Nc4cccc(F)c4)[nH]n3)ncnc2c1 [AZD2811] (first compound max 1 µM, 7x7, partner max 1 µM)	0.0134	0.0089	0.297	0.258	0.58	0.757	0.618	0.773	0.446	0.97	0.654	0.314	0.985	0.352	0.539	0.5	0.546	0.872	0.908	0.502
COc1cc2ncnc(Nc3ccc(F)c(Cl)c3)c2cc1OCCCN1CCOCC1 [Gefitinib] + CC(C)n1c(=O)n(C)c2cnc3cc(F)c(-c4ccc(OCCCN5CCCCC5)nc4)cc3c21 [AZD1390] (first compound max 10 µM, 7x7, partner max 0.3 µM)	-0.0247	-0.0989	0.01	0.13	0.409	0.456	0.41	0.623	0.247	0.296	0.264	0.0162	0.145	0.12	0.428	0.752	0.413	0.119	0.151	0.136
CC(=O)c1c(C)c2cnc(Nc3ccc(N4CCNCC4)cn3)nc2n(C2CCCC2)c1=O [Palbociclib] + Cn1cnc2c(F)c(Nc3ccc(Br)cc3Cl)c(C(=O)NOCCO)cc21 [Selumetinib] (first compound max 10 µM, 7x7, partner max 10 µM)	0.0393	-0.0041	0.296	0.386	0.101	0.374	0.569	0.521	0.201	0.278	0.543	0.0806	0.833	0.636	0.259	0.434	0.353	0.806	0.138	0.292
CN(C)CCCOc1ccc(-c2ccc3ncc4c(c3c2)n(C2CCOCC2)c(=O)n4C)cn1 [AZD0156] + C=CCn1c(=O)c2cnc(Nc3ccc(N4CCN(C)CC4)cc3)nc2n1-c1cccc(C(C)(C)O)n1 [AZD1775] (first compound max 1 µM, partner max 1 µM)	-0.0409	-0.0249	0.351	0.317	0.623	0.736	0.616	0.243	0.463	1	0.749	0.478	0.95	0.454	0.542	0.866	0.291	0.965	0.705	0.107
CC(=O)c1c(C)c2cnc(Nc3ccc(N4CCNCC4)cn3)nc2n(C2CCCC2)c1=O [Palbociclib] + CC1(C)CCC(CN2CCN(c3ccc(C(=O)NS(=O)(=O)c4ccc(NCC5CCOCC5)c([N+](=O)[O-])c4)c(Oc4cnc5[nH]ccc5c4)c3)CC2)=C(c2ccc(Cl)cc2)C1 [Venetoclax] (first compound max 10 µM, 7x7, partner max 1 µM)	-0.0205	-0.0219	0.255	0.104	0.0898	0.329	0.501	0.359	0.138	1	0.477	0.0487	0.837	0.0192	0.336	0.204	0.277	0.754	1	0.147
CN(CCO)CC[C@H](CSc1ccccc1)Nc1ccc(S(=O)(=O)NC(=O)c2ccc(N3CCC([C@@H](O)c4ccccc4-c4ccc(Cl)cc4)CC3)cc2)cc1S(=O)(=O)C(F)(F)F [AZD4320] + Cn1cnc2c(F)c(Nc3ccc(Br)cc3Cl)c(C(=O)NOCCO)cc21 [Selumetinib] (first compound max 1 µM, 7x7, partner max 3 µM)	0.0084	0.0164	0.693	0.759	0.389	0.393	0.466	0.701	0.8	1	0.295	0.275	1	0.981	0.318	0.333	0.912	0.854	1	0.609
CC1(C)CCC(CN2CCN(c3ccc(C(=O)NS(=O)(=O)c4ccc(NCC5CCOCC5)c([N+](=O)[O-])c4)c(Oc4cnc5[nH]ccc5c4)c3)CC2)=C(c2ccc(Cl)cc2)C1 [Venetoclax] + Cn1cnc2c(F)c(Nc3ccc(Br)cc3Cl)c(C(=O)NOCCO)cc21 [Selumetinib] (first compound max 1 µM, 7x7, partner max 3 µM)	-0.008	-0.0367	0.204	0.403	0.0922	0.154	0.366	0.365	0.272	1	0.636	0.077	1	0.571	0.163	0.22	0.267	0.293	1	0.191
Cc1c2c(nn1C)CSCc1cc(n(C)n1)CSc1cc(c3ccccc3c1)OCCCc1c(C(=O)O)n(C)c3c-2c(Cl)ccc13 [AZD5991] + C1CN(CCC1(C(=O)N[C@@H](CCO)C2=CC=C(C=C2)Cl)N)C3=NC=NC4=C3C=CN4 [Capivasertib] (first compound max 1 µM, 7x7, partner max 3 µM)	-0.0169	-0.0021	0.951	0.161	0.275	0.299	0.196	0.728	0.373	0.926	0.338	0.196	1	0.241	0.367	0.26	0.236	0.52	0.325	0.402
Cc1cc2ncnn2cc1Nc1ncc2c(n1)n(C1CCOCC1)c(=O)n2C [AZD7648] + C[C@@H]1COCCN1C2=NC(=NC(=C2)C3(CC3)[S@](=N)(=O)C)C4=C5C=CNC5=NC=C4 [AZD6738] (first compound max 10 µM, 7x7, partner max 10 µM)	-0.0207	0.0572	0.435	0.369	0.798	0.663	0.743	0.405	0.476	1	0.883	0.365	0.882	0.489	0.344	0.805	0.53	0.969	0.475	0.383
